Details of data set [1]: method as in PMID 29532412. To be noted: PAMPA-BBB; cited from earlier work.
Data set [2] is described as follows: BBB permeation by PAMPA method. Format: in vitro ADME. To be noted: for Prediction (BBB permeation): class from experimental Pe; for Effective permeability (Pe): read-out: Experimental Pe. The text has this:
The CNS bioavailability of the molecules was further ascertained by the PAMPA method.

Data set [3] deals with T1, MAO-B (Homo sapiens, UniProt P27338).
T1 sequence (P27338 1-520): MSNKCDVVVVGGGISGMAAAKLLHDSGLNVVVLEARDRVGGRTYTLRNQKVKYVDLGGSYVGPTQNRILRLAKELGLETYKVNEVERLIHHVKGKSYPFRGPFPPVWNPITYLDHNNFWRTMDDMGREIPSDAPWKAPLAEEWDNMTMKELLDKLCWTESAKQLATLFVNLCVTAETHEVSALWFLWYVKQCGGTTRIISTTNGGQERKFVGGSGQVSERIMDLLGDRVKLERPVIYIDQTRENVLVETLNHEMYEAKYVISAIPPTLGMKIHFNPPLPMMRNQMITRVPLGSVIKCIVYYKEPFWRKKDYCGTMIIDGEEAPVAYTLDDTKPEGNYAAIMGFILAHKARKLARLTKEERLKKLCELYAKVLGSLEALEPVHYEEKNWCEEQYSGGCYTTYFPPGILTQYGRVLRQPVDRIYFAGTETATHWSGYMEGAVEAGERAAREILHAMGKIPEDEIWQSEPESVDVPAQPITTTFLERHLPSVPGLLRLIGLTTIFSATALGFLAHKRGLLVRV
Briefly: MAO-B inhibitory assay (recombinant MAO-B, benzylamine substrate). To be noted: for Selectivity index (SI) for MAO-B as compared with MAO-A: from the IC50 values of MAO-A and MAO-B; for remaining activity at 10 µM: read-out: % Residual Activity (at 10 µM) MAO-B.
Procedure: (§1) MAO inhibitory assay was assessed in accordance with the previously standardized methods of assessing recombinant MAO-A and MAO-B by using the substrates (0.06 mM kynuramine and 0.3 mM benzylamine, respectively) [38, 39, 40]. […] The enzymes and chemicals were purchased from Sigma-Aldrich (St. Louis, MO, USA).
(§2) Initially, the inhibitory activities of the synthesized compounds were identified at a concentration of 10 μM against MAO-A, MAO-B, and BACE1. […] The obtained IC50 values thus compared were used to deduce the SI values.

The target in another data set is BACE1 (Homo sapiens, UniProt P56817). Briefly: BACE1 activity assay kit (β-secretase, CS0010), fluorescence. The note with it: for remaining activity at 10 µM: read-out: % Residual Activity (at 10 µM) BACE1.
The target in the next data set is T2, recombinant MAO-A (Homo sapiens, UniProt P21397).
T2 sequence (P21397 1-527): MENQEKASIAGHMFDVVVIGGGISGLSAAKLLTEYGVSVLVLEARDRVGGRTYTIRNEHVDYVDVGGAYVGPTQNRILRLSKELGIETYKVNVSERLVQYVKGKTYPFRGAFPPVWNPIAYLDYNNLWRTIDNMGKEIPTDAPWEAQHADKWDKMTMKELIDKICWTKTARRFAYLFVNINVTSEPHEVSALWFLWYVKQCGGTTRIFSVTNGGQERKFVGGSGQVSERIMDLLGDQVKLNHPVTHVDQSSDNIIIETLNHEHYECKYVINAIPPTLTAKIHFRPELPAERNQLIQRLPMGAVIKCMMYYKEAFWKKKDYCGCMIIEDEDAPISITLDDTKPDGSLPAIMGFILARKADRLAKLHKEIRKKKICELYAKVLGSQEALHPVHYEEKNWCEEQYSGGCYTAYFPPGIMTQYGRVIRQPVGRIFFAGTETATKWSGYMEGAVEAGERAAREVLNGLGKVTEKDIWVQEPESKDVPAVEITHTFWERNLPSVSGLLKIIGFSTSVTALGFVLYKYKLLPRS
Briefly: MAO-A inhibitory assay (recombinant MAO-A, kynuramine substrate). The note with it: for remaining activity at 10 µM: read-out: % Residual Activity (at 10 µM) MAO-A.

The target of data set [4] is T1, MAO-B. The experiment in a line: MAO-B enzyme-inhibition kinetics (Lineweaver–Burk and secondary plots). Format: biochemical. The note with it: for Mode of MAO-B inhibition: Lineweaver–Burk plots; for Ki: from secondary plot of Lineweaver–Burk slopes. Also noted: purchased Sigma-Aldrich. The text has this:
The obtained results are represented in Figure 1.
Figure 1 Lineweaver–Burk plots for MAO-B inhibition by NEA1 and NEA3 (A,C), and their respective secondary plots (B,D) of the slopes vs. inhibitor concentrations.

In data set [5] the target is T1, MAO-B. Briefly: MAO-B inhibitor-reversibility analysis by dialysis. The format is biochemical. On the set-up: purchased Sigma-Aldrich. The note with it: for Reversibility of MAO-B inhibition: dialysis method; for Relative MAO-B activity, dialyzed (AD) / Relative MAO-B activity, undialyzed (AU): ~2 × IC50 (NEA1 0.032, NEA3 0.020, lazabemide 0.22, pargyline 0.28 μM); for Relative MAO-B activity, dialyzed (AD): dialysis 6 h; for Relative MAO-B activity, undialyzed (AU): preincubated 30 min. The protocol:
The reversibility of MAO-B inhibition by NEA1 and NEA3 was evaluated using a standardized dialysis method. […] The activities in dialyzed (AD) and undialyzed (AU) samples were compared and reversibility patterns were determined.
Dialysis was performed for 6 h with a buffer change after 3 h with duplicate experiments.

For data set [6], the target named is T1, MAO-B. On the set-up: purchased Sigma-Aldrich; method as in PMID 32246471. The note with it: competitive inhibitor; read-out: Ki for MAO-B (earlier study); cited from earlier work.

Where two headings read alike, the source gives them in different places.

The term IC50 denotes the point on the concentration scale where inhibition reaches its midpoint. A word on the melting point: it is the temperature of the solid-liquid transition. In general, Ki refers to a measure of affinity in units of concentration, obtained from inhibition or displacement.

Sequence of BACE1 (P56817 46-501): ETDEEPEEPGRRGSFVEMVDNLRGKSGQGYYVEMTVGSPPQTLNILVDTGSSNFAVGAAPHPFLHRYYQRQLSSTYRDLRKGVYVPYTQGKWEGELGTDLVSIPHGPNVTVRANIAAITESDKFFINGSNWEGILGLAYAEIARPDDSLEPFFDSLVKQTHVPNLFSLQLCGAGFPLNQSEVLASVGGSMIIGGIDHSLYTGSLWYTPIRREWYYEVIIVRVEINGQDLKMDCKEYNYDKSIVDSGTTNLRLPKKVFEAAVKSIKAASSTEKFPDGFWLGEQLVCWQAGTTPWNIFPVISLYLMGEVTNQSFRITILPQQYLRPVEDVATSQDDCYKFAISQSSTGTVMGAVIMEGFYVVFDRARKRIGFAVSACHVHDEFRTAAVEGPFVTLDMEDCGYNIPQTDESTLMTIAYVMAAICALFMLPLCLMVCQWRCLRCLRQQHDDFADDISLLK
Procedure for BACE1: as §1, §2
Procedure for recombinant MAO-A: as §1, §2

As to `CN1C(C(=O)Nc2ccccn2)=C(O)c2ccccc2S1(=O)=O` [Piroxicam, reference compound], in data set [1], the “Bibliography Pe” value is 2.5 ×10⁻⁶ cm/s. In data set [2], the “Experimental Pe” value is listed as 2.37 ± 0.33 ×10^−6 cm/s and the “Prediction (BBB permeation)” value is “CNS± (CNS± (BBB permeation uncertain: Pe (10^−6 cm/s) from 2.00 to 4.00))”.
The compound `Cc1ccccc1NC(=O)/C=C/c1ccc([N+](=O)[O-])cc1` [NEA5, 3-(4-Nitrophenyl)-N-(O-tolyl)acrylamide] yielded a melting point of 200 to 203 °C. At MAO-B [3], the IC50 was determined as 38 ± 3 nM, the “Selectivity index (SI) for MAO-B as compared with MAO-A” value (“Selectivity index (SI) for MAO-B” below) is recorded as >1052.6 and the remaining activity at 10 µM was determined as 8.67 ± 2.3%. Moreover, at BACE1, the midpoint of inhibition, the IC50, lay at 17700 ± 1700 nM and the remaining activity at 10 µM was determined as 44 ± 0.2%. At recombinant MAO-A, the IC50 was > 40000 nM and the remaining activity at 10 µM came to 83.5 ± 1.3%. In data set [2], the “Prediction (BBB permeation)” value is recorded as “CNS+ (CNS+ (high BBB permeation predicted: Pe (10^−6 cm/s) > 4.00))” and the Effective permeability (Pe) was found to be 15.5 ± 0.44 ×10⁻⁶ cm/s.
In turn, `O=C(C=Cc1ccc([N+](=O)[O-])cc1)NC1CCCCC1` [NEA4, N-Cyclohexyl-3-(4-nitrophenyl)acrylamide] registered a melting point of 166 to 168 °C. Also, at MAO-B [3], the IC50 was 74 ± 20 nM, the “Selectivity index (SI) for MAO-B” value is listed as >540.5 and the remaining activity at 10 µM came out at 9.52 ± 3.5%. For the same compound, the remaining activity at 10 µM on BACE1 was determined as 61.2 ± 3%. For the same compound, at recombinant MAO-A, the half-inhibitory concentration (IC50) was > 40000 nM and the remaining activity at 10 µM amounted to 85.6 ± 1.7%. Also, in data set [2], the “Prediction (BBB permeation)” value is “CNS+ (CNS+ (high BBB permeation predicted: Pe (10^−6 cm/s) > 4.00))” and the Effective permeability (Pe) came to 15.5 ± 0.62 ×10⁻⁶ cm/s.
Turning to `CCn1cc(C(=O)O)c(=O)c2cc(F)c(N3CCNC(C)C3)c(F)c21` (stereo not drawn) [Lomefloxacin, reference compound], in data set [2], the “Prediction (BBB permeation)” value is “CNS− (CNS− (low BBB permeation predicted: Pe (10^−6 cm/s) < 2.00))” and the Effective permeability (Pe) was found to be 1.31 ± 0.51 ×10⁻⁶ cm/s.
`O=C(C=Cc1ccc([N+](=O)[O-])cc1)Nc1ccc(Cl)cc1` [NEA2, N-(4-Chlorophenyl)-3-(4-nitrophenyl)acrylamide] showed a melting point of 224 to 226 °C. Further, at MAO-B [3], the IC50 is 5280 ± 90 nM, the “Selectivity index (SI) for MAO-B” value was >7.58 and the remaining activity at 10 µM was 35.8 ± 6.2%. The remaining activity at 10 µM on BACE1 is 88.1 ± 0.3%. Moreover, at recombinant MAO-A, the IC50 was > 40000 nM and the remaining activity at 10 µM is 95 ± 0.5%. In [2], the “Prediction (BBB permeation)” value was “CNS+ (CNS+ (high BBB permeation predicted: Pe (10^−6 cm/s) > 4.00))” and the Effective permeability (Pe) is 13.5 ± 0.26 ×10⁻⁶ cm/s.
`O=C(C=Cc1ccc([N+](=O)[O-])cc1)Nc1ccc(F)cc1` [NEA3, N-(4-Fluorophenyl)-3-(4-nitrophenyl)acrylamide] showed a melting point of 208 to 210 °C. For the same compound, at MAO-B [3], the IC50 is 9.2 ± 0.3 nM, the “Selectivity index (SI) for MAO-B” value was 1652.2 and the remaining activity at 10 µM was found to be 3.04 ± 0.5%. At MAO-B [4], the “Mode of MAO-B inhibition” value is given as “competitive” and the Ki came to 4.9 ± 0.2 nM. Further, on MAO-B [5], the “Reversibility of MAO-B inhibition” value was “reversible”; the “Relative MAO-B activity, dialyzed (AD)” value turned out to be 79.5%; the “Relative MAO-B activity, undialyzed (AU)” value is 32.8%. Further, at BACE1, the IC50 stood at 8020 ± 130 nM and the remaining activity at 10 µM is 34.4 ± 0.2%. For the same compound, on recombinant MAO-A, the IC50 is 15200 ± 600 nM and the remaining activity at 10 µM stood at 61.9 ± 0.4%. For the same compound, in data set [2], the “Prediction (BBB permeation)” value is reported as “CNS+ (CNS+ (high BBB permeation predicted: Pe (10^−6 cm/s) > 4.00))” and the Effective permeability (Pe) came out at 16.4 ± 0.17 ×10⁻⁶ cm/s.
`C=CC(=O)Nc1cccc([N+](=O)[O-])c1` [AD9, N-(3-nitrophenyl)prop-2 enamide]: at MAO-B [6], the Ki was 39 ± 5 nM.
`NCCc1ccc(O)c(O)c1` [Dopamine, reference compound]: in data set [1], the “Bibliography Pe” value was 0.2 ×10⁻⁶ cm/s. In addition, in data set [2], the “Prediction (BBB permeation)” value is given as “CNS− (CNS− (low BBB permeation predicted: Pe (10^−6 cm/s) < 2.00))” and the Effective permeability (Pe) came out at 0.26 ± 0.04 ×10⁻⁶ cm/s.
Consider `O=C(C=Cc1ccc([N+](=O)[O-])cc1)Nc1ccccc1` [NEA1, 3-(4-Nitrophenyl)-N-phenylacrylamide], for which, on MAO-B [3], the IC50 came out at 16 ± 1 nM, the “Selectivity index (SI) for MAO-B” value is reported as >2500.0 and the remaining activity at 10 µM turned out to be 3.88 ± 0.6%. In addition, on MAO-B [4], the “Mode of MAO-B inhibition” value was “competitive” and the affinity, expressed as Ki, was 13 ± 5 nM. On MAO-B [5], the “Reversibility of MAO-B inhibition” value was “reversible”; the “Relative MAO-B activity, dialyzed (AD)” value is listed as 79.5%; the “Relative MAO-B activity, undialyzed (AU)” value is given as 29.2%. On BACE1, half-maximal inhibition (IC50) required 8210 ± 30 nM and the remaining activity at 10 µM came to 34.9 ± 0.5%. Moreover, at recombinant MAO-A, the IC50 was > 40000 nM and the remaining activity at 10 µM was 91.9 ± 5.9%. Also, in data set [2], the “Prediction (BBB permeation)” value was “CNS+ (CNS+ (high BBB permeation predicted: Pe (10^−6 cm/s) > 4.00))” and the Effective permeability (Pe) is 14.4 ± 0.35 ×10⁻⁶ cm/s.

These data come from publication PMC8512054 (Molecules, 2021).
